Experimental data as given in article PMC8951032, “Study of Biological Activities and ADMET-Related Properties of Novel Chlorinated N-arylcinnamamides” (International Journal of Molecular Sciences, 2022).
Converted amounts (≈) assume the structure as drawn. Like-named read-outs stand apart in the source and are kept apart here.

Experiments:
[1] = tested on: vancomycin-resistant E. faecalis (VRE) 342B; test: In vitro antienterococcal activity, microtitration broth MIC; format: cell-based, Enterococcus faecalis; conditions: 24 h
[2] = tested on: Mycobacterium marinum CAMP 5644; test: In vitro antimycobacterial activity, broth dilution MIC; format: cell-based; conditions: CAMP5644, 504 h
[3] = tested on: human monocytic leukemia cell line THP-1; test: In vitro cell viability, CCK-8; format: cell-based; conditions: for IC50: Homo sapiens, THP-1
Protocol: (§1) The effect of the compounds on viability of eukaryotic cells was evaluated on human leukemia cell line THP-1, human synovial cell line SW982, and isolated primary porcine monocytes-delivered macrophages (MDM). The general cytotoxic effect was studied on THP-1 cells in the serum-free medium (only THP-1 as the only cells used in this study are able to survive in serum-free medium). Most of the compounds had no cytotoxic effect on THP-1 cells. […] This could be caused by the direct interaction of such compounds with serum proteins or by the effect of mitogens, cytokines, and hormones present in the serum. Obviously, the full medium is closer to physiological conditions in living organisms, so it can be assumed that these compounds could be non-toxic there.
(§2) Human monocytic leukemia cell line THP-1 and human synovial cell line SW982 were purchased from the European Collection of Cell Cultures (ECACC, Salisbury, UK) and were used for determination of the influence of test compounds on cell viability, as described previously. These cell lines represent typical suspension and adherent cells, respectively. They were cultivated with test substances in the presence or absence of fetal bovine serum (FBS) in the cultivation medium, and the relative cell viability (the ratio between cells treated with compounds and cells treated only with DMSO) was determined by CCK-8 kit (Sigma) after 24 h.

[4] = tested on: human synovial cell line SW982; test: In vitro cell viability, CCK-8; format: cell-based; conditions: 10% fetal bovine serum
Protocol: as §1, §2

[5] = tested on: S. aureus, MRSA, E. faecalis, VRE, M. smegmatis, M. marinum; test: In vitro antimicrobial screening, all tested strains; format: cell-based; conditions: antibacterial/antimycobacterial screening
[6] = tested on: methicillin-resistant S. aureus SA 3202; test: In vitro antistaphylococcal activity, microtitration broth MIC; format: cell-based; conditions: Staphylococcus aureus
[7] = tested on: methicillin-resistant S. aureus SA 630; test: as above; format: cell-based; conditions: Staphylococcus aureus
[8] = tested on: Staphylococcus aureus ATCC 29213; test: as above; format: cell-based; conditions: for MIC: Staphylococcus aureus
[9] = tested on: methicillin-resistant S. aureus (MRSA) 63718; test: as above; format: cell-based; conditions: Staphylococcus aureus
[10] = tested on: Enterococcus faecalis ATCC 29212; test: In vitro antienterococcal activity, microtitration broth MIC; format: cell-based
[11] = tested on: porcine monocyte-derived macrophages (MDM); test: In vitro cell viability, CCK-8; format: cell-based; conditions: Sus scrofa, Macrophage, 10% fetal bovine serum
Protocol: as §1
Porcine monocyte-derived macrophages (MDMs) were prepared, as described previously. Briefly, blood was collected from three-month-old pigs and peripheral blood mononuclear cells (PBMC) were isolated by gradient centrifugation (830× g, 40 min) using Histopaque-1077 (Sigma). CD14+ cells were isolated by positive magnetic bead selection with LS separation columns (Miltenyi Biotec, Bergisch Gladbach, Germany). Isolated monocytes were cultured in 96-well plates at a concentration of 1 × 10^5 cells per well in 0.2 mL of DMEM supplemented with 10% FBS and 1% antibiotics (Antibiotic Antimycotic Solution 100 × 10,000 units penicillin, 10 mg streptomycin, and 25 μg amphotericin B per mL; Sigma) and incubated for five days at 37 °C in 5% CO2 to differentiate into macrophages. Then, MDMs were cultured for 24 h with tested substances and the relative cell viability was determined by CCK-8 kit (Sigma) following manufacturer instructions.

[12] = tested on: vancomycin-resistant E. faecalis (VRE) 368; test: In vitro antienterococcal activity, microtitration broth MIC; format: cell-based, Enterococcus faecalis
[13] = tested on: Mycobacterium smegmatis ATCC 700084; test: In vitro antimycobacterial activity, broth dilution MIC; format: cell-based; conditions: Mycolicibacterium smegmatis
[14] = tested on: vancomycin-resistant E. faecalis (VRE) 725B; test: In vitro antienterococcal activity, microtitration broth MIC; format: cell-based, Enterococcus faecalis; conditions: 24 h
[15] = read-out: log(1/MIC [M]) VRE1 (converted)
[16] = M. marinum CAMP 5644, 21 days, read-out: MIC MM
[17] = M. marinum CAMP 5644, read-out: log(1/MIC [M]) MM (converted)
[18] = 10% fetal bovine serum, 24 h, read-out: IC50 THP-1 10% FSB
[19] = 10% fetal bovine serum, read-out: log(1/IC50 [M]) THP-1 10% FSB (converted)
[20] = serum-free medium, 24 h, read-out: IC50 THP-1 SFM
[21] = serum-free medium, read-out: log(1/IC50 [M]) THP-1 SFM (converted)
[22] = 24 h, read-out: IC50 SW982 10% FSB
[23] = read-out: log(1/IC50 [M]) SW982 10% FSB (converted)
[24] = 24 h, MRSA SA 3202, read-out: log(1/MIC [M]) MRSA3 (converted)
[25] = MRSA SA 3202, 24 h, read-out: MIC MRSA3
[26] = 24 h, MRSA SA 630, read-out: log(1/MIC [M]) MRSA2 (converted)
[27] = MRSA SA 630, 24 h, read-out: MIC MRSA2
[28] = ATCC29213, 24 h, S. aureus ATCC 29213, read-out: log(1/MIC [M]) SA (converted)
[29] = ATCC29213, S. aureus ATCC 29213, 24 h, read-out: MIC SA
[30] = 24 h, MRSA 63718, read-out: log(1/MIC [M]) MRSA1 (converted)
[31] = MRSA 63718, 24 h, read-out: MIC MRSA1
[32] = ATCC29212, 24 h, E. faecalis reference strain, read-out: log(1/MIC [M]) EF (converted)
[33] = ATCC29212, E. faecalis reference strain, 24 h, read-out: MIC EF
[34] = 24 h, read-out: IC50 MDM 10% FSB
[35] = read-out: log(1/IC50 [M]) MDM 10% FSB (converted)
[36] = 24 h, VRE 368, read-out: log(1/MIC [M]) VRE2 (converted)
[37] = VRE 368, 24 h, read-out: MIC VRE2
[38] = ATCC700084, 72 h, M. smegmatis ATCC 700084, three days, read-out: MIC MS
[39] = ATCC700084, M. smegmatis ATCC 700084, read-out: log(1/MIC [M]) MS (converted)
[40] = read-out: log(1/MIC [M]) VRE3 (converted)

MIC ([1]; read-out: MIC VRE1)	MIC [1, 15]	MIC [2, 16]	MIC [2, 17]	IC50 [3, 18]	IC50 [3, 19]	IC50 [3, 20]	IC50 [3, 21]	IC50 [4, 22]	IC50 [4, 23]	MIC [6, 24]	MIC [6, 25]	MIC [7, 26]	MIC [7, 27]	MIC [8, 28]	MIC [8, 29]	MIC [9, 30]	MIC [9, 31]	MIC [10, 32]	Structure (SMILES)	antimicrobial activity (in words) [5]	other results
2.22e-05 M (≈ 8 µg/mL)	2.24e-05 M (≈ 8.06 µg/mL)	5.55e-06 M (≈ 2 µg/mL)	5.5e-06 M (≈ 1.98 µg/mL)	> 1e-05 M	> 1e-05 M	1.9e-06 ± 1e-06 M	1.91e-06 M	> 1e-05 M	> 1e-05 M	1.38e-06 M (≈ 0.497 µg/mL)	1.39e-06 M (≈ 0.501 µg/mL)	1.38e-06 M (≈ 0.497 µg/mL)	1.39e-06 M (≈ 0.501 µg/mL)	1.38e-06 M (≈ 0.497 µg/mL)	1.39e-06 M (≈ 0.501 µg/mL)	6.92e-07 M (≈ 0.249 µg/mL)	6.94e-07 M (≈ 0.25 µg/mL)	2.24e-05 M (≈ 8.06 µg/mL)	O=C(/C=C/c1ccc(Cl)c(Cl)c1)Nc1cccc(C(F)(F)F)c1 [2i, (2E)-3-(3,4-Dichlorophenyl)-N-[3-(trifluoromethyl)phenyl]prop-2-enamide]	active	MIC [10, 33]: 2.22e-05 M (≈ 8 µg/mL); IC50 [11, 34]: > 1e-05 M; IC50 [11, 35]: > 1e-05 M; MIC [12, 36]: 2.24e-05 M (≈ 8.06 µg/mL); MIC [12, 37]: 2.22e-05 M (≈ 8 µg/mL); MIC [13, 38]: 5.55e-06 M (≈ 2 µg/mL); MIC [13, 39]: 5.5e-06 M (≈ 1.98 µg/mL); MIC ([14]; read-out: MIC VRE3): 4.44e-05 M (≈ 16 µg/mL); MIC [14, 40]: 4.47e-05 M (≈ 16.1 µg/mL)
1.11e-05 M (≈ 4 µg/mL)	1.12e-05 M (≈ 4.04 µg/mL)	2.78e-06 M (≈ 1 µg/mL)	2.75e-06 M (≈ 0.992 µg/mL)	> 1e-05 M	> 1e-05 M	9e-07 ± 1e-06 M	8.91e-07 M	> 1e-05 M	> 1e-05 M	6.92e-07 M (≈ 0.249 µg/mL)	6.94e-07 M (≈ 0.25 µg/mL)	3.72e-07 M (≈ 0.134 µg/mL)	3.71e-07 M (≈ 0.134 µg/mL)	6.92e-07 M (≈ 0.249 µg/mL)	6.94e-07 M (≈ 0.25 µg/mL)	3.72e-07 M (≈ 0.134 µg/mL)	3.71e-07 M (≈ 0.134 µg/mL)	1.12e-05 M (≈ 4.04 µg/mL)	O=C(/C=C/c1ccc(Cl)c(Cl)c1)Nc1ccc(C(F)(F)F)cc1 [2j, (2E)-3-(3,4-Dichlorophenyl)-N-[4-(trifluoromethyl)phenyl]prop-2-enamide]	active	activity against S. aureus and MRSA isolates (in words) [8]: submicromolar; MIC [10, 33]: 1.11e-05 M (≈ 4 µg/mL); IC50 [11, 34]: > 1e-05 M; IC50 [11, 35]: > 1e-05 M; MIC [12, 36]: 1.12e-05 M (≈ 4.04 µg/mL); MIC [12, 37]: 1.11e-05 M (≈ 4 µg/mL); MIC [13, 38]: 2.78e-06 M (≈ 1 µg/mL); MIC [13, 39]: 2.75e-06 M (≈ 0.992 µg/mL); MIC ([14]; read-out: MIC VRE3): 1.11e-05 M (≈ 4 µg/mL); MIC [14, 40]: 1.12e-05 M (≈ 4.04 µg/mL)
2.13e-05 M (≈ 8.01 µg/mL)	2.14e-05 M (≈ 8.04 µg/mL)	2.66e-06 M (≈ 1 µg/mL)	2.95e-07 M (≈ 0.111 µg/mL)	> 1e-05 M	> 1e-05 M	1e-06 ± 1e-06 M	5.01e-07 M	> 1e-05 M	> 1e-05 M	1.32e-06 M (≈ 0.496 µg/mL)	1.33e-06 M (≈ 0.5 µg/mL)	1.32e-06 M (≈ 0.496 µg/mL)	1.33e-06 M (≈ 0.5 µg/mL)	2.95e-07 M (≈ 0.111 µg/mL)	1.33e-06 M (≈ 0.5 µg/mL)	1.32e-06 M (≈ 0.496 µg/mL)	1.33e-06 M (≈ 0.5 µg/mL)	4.68e-06 M (≈ 1.76 µg/mL)	O=C(/C=C/c1ccc(Cl)c(Cl)c1)Nc1ccc(OC(F)(F)F)cc1 [2k, (2E)-3-(3,4-Dichlorophenyl)-N-[4-(trifluoromethoxy)phenyl]prop-2-enamide]	active	reduction of cell viability, CCK-8 assay ([3]; 2k 1.0 µM, serum-free medium): 50%; MIC [10, 33]: 1.06e-05 M (≈ 3.99 µg/mL); IC50 [11, 34]: > 1e-05 M; IC50 [11, 35]: > 1e-05 M; MIC [12, 36]: 4.27e-05 M (≈ 16 µg/mL); MIC [12, 37]: 4.25e-05 M (≈ 16 µg/mL); MIC [13, 38]: 1.06e-05 M (≈ 3.99 µg/mL); MIC [13, 39]: 2.34e-06 M (≈ 0.882 µg/mL); MIC ([14]; read-out: MIC VRE3): 2.13e-05 M (≈ 8.01 µg/mL); MIC [14, 40]: 2.14e-05 M (≈ 8.04 µg/mL)
9.34e-06 M (≈ 4 µg/mL)	9.33e-06 M (≈ 4 µg/mL)	2.92e-07 M (≈ 0.125 µg/mL)	2.63e-06 M (≈ 1.13 µg/mL)	> 1e-05 M	> 1e-05 M	5e-07 ± 1e-06 M	1e-06 M	> 1e-05 M	> 1e-05 M	2.95e-07 M (≈ 0.126 µg/mL)	2.92e-07 M (≈ 0.125 µg/mL)	1.35e-07 M (≈ 0.0578 µg/mL)	1.36e-07 M (≈ 0.0582 µg/mL)	1.32e-06 M (≈ 0.564 µg/mL)	2.92e-07 M (≈ 0.125 µg/mL)	1.35e-07 M (≈ 0.0578 µg/mL)	1.36e-07 M (≈ 0.0582 µg/mL)	1.07e-05 M (≈ 4.59 µg/mL)	O=C(/C=C/c1ccc(Cl)c(Cl)c1)Nc1cc(C(F)(F)F)cc(C(F)(F)F)c1 [2q, (2E)-N-[3,5-bis(Trifluoromethyl)phenyl]-3-(3,4-dichlorophenyl)prop-2-enamide]	active	activity against S. aureus and MRSA isolates (in words) [8]: submicromolar; MIC [10, 33]: 4.67e-06 M (≈ 2 µg/mL); IC50 [11, 34]: 5e-06 to 1e-05 M; MIC [12, 36]: 1.86e-05 M (≈ 7.97 µg/mL); MIC [12, 37]: 1.87e-05 M (≈ 8 µg/mL); MIC [13, 38]: 2.34e-06 M (≈ 1 µg/mL); MIC [13, 39]: 1.07e-05 M (≈ 4.59 µg/mL); MIC ([14]; read-out: MIC VRE3): 4.67e-06 M (≈ 2 µg/mL); MIC [14, 40]: 4.68e-06 M (≈ 2 µg/mL)
